The target in this experiment is STING (Homo sapiens, UniProt Q86WV6). The experiment is described as follows: STING antagonist activity, cell-based ISG54 promoter-reporter luciferase measurement of IRF activity (THP-1 dual / RAW-ISG cells). The following applies: Antagonist Activity of Exemplary Compounds, cell line and agonist not given. How it is done:
THP-1 dual cells (InvivoGen) were cultured under 5% CO2 at 37° C. in RPMI containing 10% fetal bovine serum (FBS), 100 IU mL-1 penicillin and 100 μg mL-1 streptomycin. RAW-ISG cells (InvivoGen) were cultured under 5% CO2 at 37° C. in DMEM containing 10% fetal bovine serum (FBS), 100 IU mL-1 penicillin and 100 μg mL-1 streptomycin. THP-1 dual cells were seeded into the 96 well assay plate on the day of assay whereas RAW cells were seeded into the 96 well assay plate 18 hours before the assay.
50,000 cells seeded in a 96-well flat bottom white assay plate were treated with different concentrations (10 uM to 0.01 uM) of compounds for 1 h followed by STING induction with either 30 nM SB 11285 or 10 ug/mL 2′-3′ cGAMP. The cells were then incubated for 20 hours @ 37° C. in CO2 incubator before measuring IRF activation by using Quanti-Luc (InvivoGen). The % inhibition was calculated as 100−{[(luminescence of COI treated well/luminescence of non-COI treated well)/100]×100}. IC50 was calculated by plotting in Xlfit.
50,000 cells seeded in a 96-well flat bottom white assay plate were treated with different concentrations (10 uM to 0.01 uM) of compounds for 1 h followed by STING induction with either 1 μM SB 11285 or 10 ug/mL 2′-3′ cGAMP. The cells were then incubated for 20 hours @ 37° C. in CO2 incubator before measuring IRF activation by using Quanti-Luc (InvivoGen). The % inhibition was calculated as 100−{[(luminescence of COI treated well/luminescence of non-COI treated well)/100]×100}. IC50 was calculated by plotting in Xlfit.
THP1-Dual-WT cells (InvivoGen) were plated into 96-well flat bottom plate at 5×10^4 cells/140 μL/well in triplicate. Cells were then treated with diluted antagonist compounds at 10 μL/well for 1 h, followed by treatment with compounds or 2′3′-cGAMP/lipo mixture for 18 h. The levels of IRF activity were determined using Quanti-luc (InvivoGen) and calculated against IRF activity in DMSO-treated cells. IC50 and CC50 values were calculated using Xlfit.

Like-named read-outs stand apart in the source and are kept apart here.

The source of these data is patent US20220168309A1 (F-STAR THERAPEUTICS, INC., priority 2019, published 2022).

Sequence of STING (Q86WV6 whole entry): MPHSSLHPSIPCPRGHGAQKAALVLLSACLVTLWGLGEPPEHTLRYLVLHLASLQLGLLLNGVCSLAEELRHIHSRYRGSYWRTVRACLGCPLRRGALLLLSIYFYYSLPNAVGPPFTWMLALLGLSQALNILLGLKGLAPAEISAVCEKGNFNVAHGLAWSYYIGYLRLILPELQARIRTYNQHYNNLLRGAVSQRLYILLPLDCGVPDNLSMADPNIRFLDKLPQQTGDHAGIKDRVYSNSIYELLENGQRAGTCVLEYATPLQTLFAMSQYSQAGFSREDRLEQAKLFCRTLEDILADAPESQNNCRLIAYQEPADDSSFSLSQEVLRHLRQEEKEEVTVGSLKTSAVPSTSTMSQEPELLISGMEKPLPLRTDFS

`COC(=O)[C@@H](NC(=O)CCCCCCCCCCCCCCCn1c(C)nc2nc(Cl)nc(S(=O)(=O)C(C)C)c21)C(C)C` [Compound 148, methyl (16-(2-chloro-6-(isopropylsulfonyl)-8-methyl-7H-purin-7-yl)hexadecanoyl)-L-valinate]: where the note is “read-out: IC50”, the IC50 is 0.001 to 1 µM.

For `Cc1nc2nc(Cl)nc(Cl)c2n1CCCCCCCCCCCCCCCc1nnnn1C` [Compound 101, 2,6-dichloro-8-methyl-7-(15-(1-methyl-1H-tetrazol-5-yl)pentadecyl)-7H-purine], the IC50 (read-out: IC50) lay in the range of 0.001 to 1 µM.

`Cc1nc2nc(Cl)nc(S(=O)(=O)C(C)C)c2n1CCCCCCCCCCCCCCCC(=O)OC[C@H](O)CO` [Compound 133, (R)-2,3-dihydroxypropyl 16-(2-chloro-6-(isopropylsulfonyl)-8-methyl-7H-purin-7-yl)hexadecanoate]: the IC50 (read-out: IC50) is 1 to 5 µM.

Take `Cc1nc2nc(Cl)nc(Cl)c2n1CCCCCCCCn1c(C)nc2nc(Cl)nc(Cl)c21` [Compound 63, 1,8-bis(2,6-dichloro-8-methyl-7H-purin-7-yl)octane]: the IC50 (read-out: IC50) was in the range of 0.001 to 1 µM.

`Cc1nc2nc(Cl)nc(S(=O)(=O)C(C)C)c2n1CCCCCCCCCCCCCCCC#N` [Compound 164, 16-(2-chloro-6-(isopropylsulfonyl)-8-methyl-7H-purin-7-yl)hexadecanenitrile]: the IC50 (read-out: IC50) is 0.001 to 1 µM.

As to `COC(=O)CCCCCCCCCCCCCCCn1c(C#CC2CC2)nc2nc(Cl)nc(Cl)c21` [Compound 70, methyl 16-(2,6-dichloro-8-(cyclopropylethynyl)-7H-purin-7-yl)hexadecanoate], the half-maximal inhibitory concentration (IC50) (read-out: IC50) fell in the range of 1 to 5 µM.

As to `COC(=O)CCCN1CCN(CCCCCCn2c(C)nc3nc(Cl)nc(Cl)c32)CC1` [Compound 153, Methyl 4-(4-(6-(2,6-dichloro-8-methyl-7H-purin-7-yl)hexyl)piperazin-1-yl)butanoate], the 50% inhibitory concentration (IC50) (read-out: IC50) fell in the range of 1 to 5 µM.

`Cc1nc2nc(Cl)nc(Cl)c2n1CCCCCCCCCCCCCCCC#N` [Compound 157, 16-(2,6-dichloro-8-methyl-7H-purin-7-yl)hexadecanenitrile]: the IC50 (read-out: IC50) is 0.001 to 1 µM.

For `COC(=O)CCCCCO[C@@H]1CCN(CCCCCCn2c(C)nc3nc(Cl)nc(Cl)c32)C1` [Compound 130], the IC50 (read-out: IC50) lay in the range of 0.001 to 1 µM.

Turning to `Cc1nc2nc(Cl)nc(Cl)c2n1CCCCCCCCCCCCCCCC(=O)OCC(C)O` (centres unmarked) [Compound 98, 2-hydroxypropyl 16-(2,6-dichloro-8-methyl-7H-purin-7-yl)hexadecanoate], the half-inhibitory concentration (IC50) (read-out: IC50) was in the range of 1 to 5 µM.

As to `COC(=O)CCCCn1cnc2nc(Cl)nc(Cl)c21` [Compound 32, methyl 5-(2,6-dichloro-7H-purin-7-yl)pentanoate], under “read-out: IC50”, the IC50 lay within 1 to 5 µM.

Take `Cc1nc2nc(Cl)nc(S(=O)(=O)C(C)C)c2n1CCCCCCCCCC[N+]1([O-])CCOCC1` [Compound 115, 4-(10-(2-chloro-6-(isopropylsulfonyl)-8-methyl-7H-purin-7-yl)decyl)-4-(11-oxidanyl)-4l4-morpholine]: for the setting “read-out: IC50”, the IC50 is above 20 µM.

For the compound `COC(=O)CCCCCCCCCCn1cnc2nc(Cl)nc(Cl)c21` [Compound 7], under “read-out: IC50”, the IC50 fell in the range of 0.001 to 1 µM.

Regarding `Cc1nc2nc(Cl)nc(Cl)c2n1CCCCCCCCCCCCCCCC(=O)N1CCNCC1` [Compound 87, 16-(2,6-dichloro-8-methyl-7H-purin-7-yl)-1-(piperazin-1-yl)hexadecan-1-one], for the setting “read-out: IC50”, the IC50 lay within 10 to 20 µM.

On to `CNC(=O)CCCCCCCCCCCCCCCn1c(C)nc2nc(Cl)nc(S(=O)(=O)C(C)C)c21` [Compound 131, 16-(2-chloro-6-(isopropylsulfonyl)-8-methyl-7H-purin-7-yl)-N-methylhexadecaanamide], for which the IC50 (read-out: IC50) lay in the range of 0.001 to 1 µM.

On to `COC(=O)CCCCCCCCCCCCCCCn1c(C)nc2nc(C#N)nc(C#N)c21` [Compound 126, Methyl 16-(2,6-dicyano-8-methyl-7H-purin-7-yl)hexadecanoate], for which, where the note is “read-out: IC50”, the IC50 was above 20 µM.

Take `COC(=O)CCCCCCCCCCCCCCCn1cnc2ncnc(Cl)c21` [Compound 1]: the IC50 (read-out: IC50) was 1 to 5 µM.

Take `COC(=O)CCCCCCCCCCCCCCCn1c(CCl)nc2nc(Cl)nc(Cl)c21` [Compound 91, Methyl 16-(2,6-dichloro-8-(chloromethyl)-7H-purin-7-yl)hexadecanoate]: the IC50 (read-out: IC50) was 0.001 to 1 µM.

With `Cc1nc2nc(Cl)nc(Cl)c2n1CCCCCCCCCCCCCCCC(=O)OC[C@@H](O)CO` [Compound 107, (S)-2,3-dihydroxypropyl 16-(2,6-dichloro-8-methyl-7H-purin-7-yl)hexadecanoate], where the note is “read-out: IC50”, the half-inhibitory concentration (IC50) was 1 to 5 µM.

For `CCCCCCCCCCCCCCCCn1c(C)nc2nc(Cl)nc(S(=O)(=O)C(C)C)c21` [Compound 97, 2-chloro-7-hexadecyl-6-(isopropylsulfonyl)-8-methyl-7H-purine], under “read-out: IC50”, the IC50 lay in the range of 0.001 to 1 µM.

Take `Cc1nc2c(Cl)nc(Cl)nc2n1CCCCCCCCCCCCCCCCO` [Compound 76, 16-(2,6-dichloro-8-methyl-9H-purin-9-yl)hexadecan-1-ol]: the IC50 (read-out: IC50) lay in the range of 5 to 10 µM.

In the case of `COC(=O)CCCCCCNCCCCCCCCn1c(C)nc2nc(Cl)nc(Cl)c21` [Compound 155, Methyl 7-((8-(2,6-dichloro-8-methyl-7H-purin-7-yl)octyl)amino)heptanoate], the IC50 (read-out: IC50) fell in the range of 0.001 to 1 µM.

For the compound `Cc1nc2nc(Cl)nc(S(=O)(=O)C(C)C)c2n1CCCCCCCCCCCCCCCCO` [Compound 111, 16-(2-chloro-6-(isopropylsulfonyl)-8-methyl-7H-purin-7-yl)hexadecan-1-ol], the IC50 (read-out: IC50) is 0.001 to 1 µM.

As for `COC(=O)CCCCCCNCCCCCCCCn1c(C)nc2nc(Cl)nc(S(=O)(=O)C(C)C)c21` [Compound 168, methyl 7-((8-(2-chloro-6-(isopropylsulfonyl)-8-methyl-7H-purin-7-yl)octyl)amino)heptanoate], for the setting “read-out: IC50”, the IC50 fell in the range of 0.001 to 1 µM.

Regarding `COC(=O)CCCCCCCCCCCCCCCn1ccc2nc(Cl)nc(Cl)c21` [Compound 4], the IC50 (read-out: IC50) is above 20 µM.

Take `Cc1nc2nc(Cl)nc(S(=O)(=O)C(C)C)c2n1CCCCCCCCCCCCCCCC(=O)OC(C)C` [Compound 96, isopropyl 16-(2-chloro-6-(isopropylsulfonyl)-8-methyl-7H-purin-7-yl)hexadecanoate]: the IC50 (read-out: IC50) lay in the range of 0.001 to 1 µM.

Take `CC(=O)N1CCC(Cn2cnc3nc(Cl)nc(Cl)c32)CC1` [Compound 68, 1-(4-((2,6-dichloro-7H-purin-7-yl)methyl)piperidin-1-yl)ethan-1-one]: the half-maximal inhibitory concentration (IC50) (read-out: IC50) fell in the range of 5 to 10 µM.

Regarding `COC(=O)CCCCCn1cnc2nc(Cl)nc(Cl)c21` [Compound 31, methyl 6-(2,6-dichloro-7H-purin-7-yl) hexanoate], for the setting “read-out: IC50”, the IC50 lay within 1 to 5 µM.

For `COC(=O)CCCCCCCCCCCCCCn1c(C)nc2nc(Cl)nc(Cl)c21` [Compound 161, Methyl 15-(2,6-dichloro-8-methyl-7H-purin-7-yl)pentadecanoate], the IC50 (read-out: IC50) lay in the range of 0.001 to 1 µM.

`CCCCCCCCCCCCCCC(C(=O)O)n1cnc2c(Cl)nc(Cl)nc21` (centres unmarked) [Compound 16]: the IC50 (read-out: IC50) was 10 to 20 µM.

With `COC(=O)CCCCCCCCCCCCCCCn1cnc2ncnc(S(C)(=O)=O)c21` [Compound 28, methyl 16-(6-(methylsulfonyl)-7H-purin-7-yl)hexadecanoate], where the note is “read-out: IC50”, the IC50 fell in the range of 0.001 to 1 µM.

As for `CC(=O)OCCCCCCCCn1c(C)nc2nc(Cl)nc(Cl)c21` [Compound 151, 8-(2,6-dichloro-8-methyl-7H-purin-7-yl)octyl acetate], the IC50 lay within 1 to 5 µM.

Usually IC50 stands for the midpoint of a concentration-inhibition curve.
